From patent US10681909B2, “Herbicidal triazoles” (FMC Corporation, priority 2014, dated 2020)

What was measured:
corn = experiment: Test A postemergence; type: in vivo, Zea mays; conditions: 0 to 100 scale (0 no effect, 100 complete control), approx. 10 d
Method in brief: (§1)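 Loam/sand soil mix; compound in non-phytotoxic solvent + surfactant. Pre: directed soil spray right after planting seed. Post: potted plants 2–10 cm, 1–2 leaf stage, sprayed with same formulation.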

foxtail, giant [1] = experiment: Test C postemergence; type: in vivo, Setaria faberii
Method in brief: (§2)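 Test chemicals in a non-phytotoxic solvent mixture with surfactant were applied to pots of plants at 2 to 18 cm (1- to 4-leaf stage) for postemergence treatment, grown in a peat-based medium with vermiculite, starter nutrients and dolomitic limestone. Preemergence treatment was to seeds freshly planted in loam soil mixed with sand.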

oilseed rape = experiment: Test C postemergence; type: in vivo, Brassica napus
Method in brief: as §2

blackgrass = experiment: Test C postemergence; type: in vivo, Alopecurus myosuroides
Method in brief: as §2

velvetleaf = experiment: Test C postemergence; type: in vivo, Abutilon theophrasti
Method in brief: as §2

oat, wild = experiment: Test C postemergence; type: in vivo, Avena fatua
Method in brief: as §2

chickweed = experiment: Test C postemergence; type: in vivo, Stellaria media
Method in brief: as §2

ryegrass, Italian = experiment: Test C postemergence; type: in vivo, Lolium multiflorum
Method in brief: as §2

kochia = experiment: Test C postemergence; type: in vivo, Kochia scoparia
Method in brief: as §2

barnyardgrass [2] = experiment: Test A postemergence; type: in vivo, Echinochloa crus-galli; conditions: 0 to 100 scale (0 no effect, 100 complete control), approx. 10 d
Method in brief: as §1

pigweed [3] = experiment: Test C postemergence; type: in vivo, Amaranthus retroflexus
Method in brief: as §2

pigweed [4] = experiment: Test A preemergence; type: in vivo, Amaranthus retroflexus; conditions: 0 to 100 scale (0 no effect, 100 complete control)
Method in brief: as §1

nutsedge, yellow = experiment: Test C postemergence; type: in vivo, Cyperus esculentus
Method in brief: as §2

wheat (winter wheat) = experiment: Test C postemergence; type: in vivo, Triticum aestivum
Method in brief: as §2

ducksalad = experiment: Test B flooded paddy test; type: in vivo, Heteranthera limosa; conditions: 250 g ai/ha, applied to paddy water at 2-leaf stage, visual rating after 13 to 15 d, scale 0 (no effect) to 100 (complete control)
Method in brief: (§3)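 Pots were flooded to 3 cm above the soil at treatment, and compounds were applied directly into the paddy water. That depth was held throughout. After 13 to 15 d in a greenhouse, plants were rated visually against untreated controls.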

ragweed = experiment: Test C postemergence; type: in vivo, Ambrosia elatior
Method in brief: as §2

rice = experiment: Test B flooded paddy test; type: in vivo, Oryza sativa; conditions: 250 g ai/ha, applied to paddy water at 2-leaf stage, visual rating after 13 to 15 d, scale 0 (no effect) to 100 (complete control)
Method in brief: as §3

johnsongrass = experiment: Test C postemergence; type: in vivo, Sorghum halepense
Method in brief: as §2

barnyardgrass [5] = experiment: Test C postemergence; type: in vivo, Echinochloa crus-galli
Method in brief: as §2

foxtail, giant [6] = experiment: Test A postemergence; type: in vivo, Setaria faberii; conditions: 0 to 100 scale (0 no effect, 100 complete control), approx. 10 d
Method in brief: as §1

COc1nc(-c2ccc(Cl)cc2)nn1Cc1ccnc(C(F)(F)F)c1 [Compound 28]
70: Plant response rating (scale of 0 to 100 where 0 is no effect and 100 is complete control) (oilseed rape; Oilseed Rape, 125 g ai/ha) | Plant response rating, Foxtail, Giant (foxtail, giant [6]; 125 g ai/ha)
10: Plant response rating, Corn (corn; 125 g ai/ha) | Plant response rating (scale of 0 to 100 where 0 is no effect and 100 is complete control) (foxtail, giant [1]; 62 g ai/ha) | Plant response rating (scale of 0 to 100 where 0 is no effect and 100 is complete control) (foxtail, giant [1]; 125 g ai/ha) | Plant response rating (scale of 0 to 100 where 0 is no effect and 100 is complete control) (foxtail, giant [1]; 250 g ai/ha) | Plant response rating (scale of 0 to 100 where 0 is no effect and 100 is complete control) (blackgrass; 31 g ai/ha) | Plant response rating (scale of 0 to 100 where 0 is no effect and 100 is complete control) (oat, wild; 125 g ai/ha) | Plant response rating (scale of 0 to 100 where 0 is no effect and 100 is complete control) (ryegrass, Italian; 125 g ai/ha) | Plant response rating (scale of 0 to 100 where 0 is no effect and 100 is complete control) (nutsedge, yellow; 250 g ai/ha) | Plant response rating (scale of 0 to 100 where 0 is no effect and 100 is complete control) (wheat (winter wheat); 250 g ai/ha) | Plant response rating (scale of 0 to 100 where 0 is no effect and 100 is complete control) (johnsongrass; 125 g ai/ha)
98: Plant response rating (scale of 0 to 100 where 0 is no effect and 100 is complete control) (pigweed [3]; 125 g ai/ha)
5: Plant response rating (scale of 0 to 100 where 0 is no effect and 100 is complete control) (oat, wild; 31 g ai/ha) | Plant response rating (scale of 0 to 100 where 0 is no effect and 100 is complete control) (oat, wild; 62 g ai/ha) | Plant response rating (scale of 0 to 100 where 0 is no effect and 100 is complete control) (ryegrass, Italian; 31 g ai/ha) | Plant response rating (scale of 0 to 100 where 0 is no effect and 100 is complete control) (ryegrass, Italian; 62 g ai/ha) | Plant response rating (scale of 0 to 100 where 0 is no effect and 100 is complete control) (nutsedge, yellow; 31 g ai/ha) | Plant response rating (scale of 0 to 100 where 0 is no effect and 100 is complete control) (nutsedge, yellow; 62 g ai/ha) | Plant response rating (scale of 0 to 100 where 0 is no effect and 100 is complete control) (wheat (winter wheat); 62 g ai/ha) | Plant response rating (scale of 0 to 100 where 0 is no effect and 100 is complete control) (wheat (winter wheat); 125 g ai/ha) | Plant response rating (scale of 0 to 100 where 0 is no effect and 100 is complete control) (johnsongrass; 62 g ai/ha)
30: Plant response rating, Barnyardgrass (barnyardgrass [2]; 125 g ai/ha) | Plant response rating, Rice, Flood (rice)
75: Plant response rating (scale of 0 to 100 where 0 is no effect and 100 is complete control) (ragweed; 125 g ai/ha) | Plant response rating (scale of 0 to 100 where 0 is no effect and 100 is complete control) (ragweed; 250 g ai/ha)
15: Plant response rating (scale of 0 to 100 where 0 is no effect and 100 is complete control) (foxtail, giant [1]; 31 g ai/ha) | Plant response rating (scale of 0 to 100 where 0 is no effect and 100 is complete control) (blackgrass; 62 g ai/ha) | Plant response rating (scale of 0 to 100 where 0 is no effect and 100 is complete control) (blackgrass; 125 g ai/ha) | Plant response rating (scale of 0 to 100 where 0 is no effect and 100 is complete control) (oat, wild; 250 g ai/ha) | Plant response rating (scale of 0 to 100 where 0 is no effect and 100 is complete control) (ryegrass, Italian; 250 g ai/ha) | Plant response rating (scale of 0 to 100 where 0 is no effect and 100 is complete control) (nutsedge, yellow; 125 g ai/ha) | Plant response rating (scale of 0 to 100 where 0 is no effect and 100 is complete control) (barnyardgrass [5]; 31 g ai/ha) | Plant response rating (scale of 0 to 100 where 0 is no effect and 100 is complete control) (barnyardgrass [5]; 62 g ai/ha) | Plant response rating (scale of 0 to 100 where 0 is no effect and 100 is complete control) (barnyardgrass [5]; 125 g ai/ha)
90: Plant response rating (scale of 0 to 100 where 0 is no effect and 100 is complete control) (chickweed; 125 g ai/ha) | Plant response rating (scale of 0 to 100 where 0 is no effect and 100 is complete control) (chickweed; 250 g ai/ha) | Plant response rating, Ducksalad, Flood (ducksalad) | Plant response rating, Foxtail, Giant (foxtail, giant [6]; 500 g ai/ha)
65: Plant response rating (scale of 0 to 100 where 0 is no effect and 100 is complete control) (velvetleaf; 125 g ai/ha)
80: Plant response rating (scale of 0 to 100 where 0 is no effect and 100 is complete control) (velvetleaf; 250 g ai/ha) | Plant response rating (scale of 0 to 100 where 0 is no effect and 100 is complete control) (chickweed; 31 g ai/ha) | Plant response rating, Barnyardgrass (barnyardgrass [2]; 500 g ai/ha)
40: Plant response rating, Corn (corn; 500 g ai/ha)
85: Plant response rating (scale of 0 to 100 where 0 is no effect and 100 is complete control) (johnsongrass; 250 g ai/ha)
55: Plant response rating (scale of 0 to 100 where 0 is no effect and 100 is complete control) (oilseed rape; Oilseed Rape, 62 g ai/ha)
100: Plant response rating (scale of 0 to 100 where 0 is no effect and 100 is complete control) (kochia; 62 g ai/ha) | Plant response rating (scale of 0 to 100 where 0 is no effect and 100 is complete control) (kochia; 125 g ai/ha) | Plant response rating (scale of 0 to 100 where 0 is no effect and 100 is complete control) (kochia; 250 g ai/ha) | Plant response rating (scale of 0 to 100 where 0 is no effect and 100 is complete control) (pigweed [3]; 250 g ai/ha) | Plant response rating, Pigweed (pigweed [4]; 125 g ai/ha) | Plant response rating, Pigweed (pigweed [4]; 500 g ai/ha, approx. 10 d)
25: Plant response rating (scale of 0 to 100 where 0 is no effect and 100 is complete control) (oilseed rape; Oilseed Rape, 31 g ai/ha) | Plant response rating (scale of 0 to 100 where 0 is no effect and 100 is complete control) (blackgrass; 250 g ai/ha) | Plant response rating (scale of 0 to 100 where 0 is no effect and 100 is complete control) (ragweed; 31 g ai/ha) | Plant response rating (scale of 0 to 100 where 0 is no effect and 100 is complete control) (ragweed; 62 g ai/ha) | Plant response rating (scale of 0 to 100 where 0 is no effect and 100 is complete control) (barnyardgrass [5]; 250 g ai/ha)
60: Plant response rating (scale of 0 to 100 where 0 is no effect and 100 is complete control) (velvetleaf; 31 g ai/ha) | Plant response rating (scale of 0 to 100 where 0 is no effect and 100 is complete control) (velvetleaf; 62 g ai/ha)
95: Plant response rating (scale of 0 to 100 where 0 is no effect and 100 is complete control) (oilseed rape; Oilsee Rape, 250 g ai/ha) | Plant response rating (scale of 0 to 100 where 0 is no effect and 100 is complete control) (chickweed; 62 g ai/ha) | Plant response rating (scale of 0 to 100 where 0 is no effect and 100 is complete control) (kochia; 31 g ai/ha) | Plant response rating (scale of 0 to 100 where 0 is no effect and 100 is complete control) (pigweed [3]; 31 g ai/ha) | Plant response rating (scale of 0 to 100 where 0 is no effect and 100 is complete control) (pigweed [3]; 62 g ai/ha)
0: Plant response rating (scale of 0 to 100 where 0 is no effect and 100 is complete control) (wheat (winter wheat); 31 g ai/ha)
